Holding throughout (assay type): cell-based
Test [1] concerns NCI-H526 cell line. Description: Cell viability assay for H526 cell (EZ-Cytox). The conditions noted are these: Homo sapiens, NCI-H526, 120 h; H526 cells, 5 days, 3000 nM to 0.46 nM. In outline:
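Read-out was EZ-Cytox colorimetric absorbance at 450 nm, taken after brief plate shaking, with IC50 derived. Before reading, H526 cells had been cultured with test compound for 5 days.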

The target of test [2] is T1, PLK1 (Homo sapiens, UniProt P53350).
T1 construct: endogenous in cells; host or cells: HeLa LgBit (Plk1-HiBit KI): HeLa stably expressing LgBit, with a CRISPR/Cas9 knock-in of HiBit at the endogenous PLK1 locus
Description: Luciferase assay for PLK1 in HeLa LgBit (Plk1-HiBit KI) cell line. The conditions noted are these: 300 nM compound, luminescence after 9 hours. Summed up:
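Luminescence, followed in real time after adding compound at 300 nM and Endurazine substrate, is reported relative to DMSO-treated wells. Cells are a HeLa LgBit line with a Plk1-HiBit knock-in, synchronized by 2 mM thymidine for 24 h, released, and cultured 18 h before treatment.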

Test [3] has as its system MRC-5 cell line. Description: Cell viability assay for MRC-5 cell line (EZ-Cytox). Particulars: Homo sapiens, MRC5, 120 h, read-out: Activity: IC50 value of Exemplary Compound to MRC-5 cell line. On the procedure: 4. Cell Viability Assay for MRC-5 Cell Line
(1) Culture of MRC-5 Cell Line
Passage of cultured cells was maintained within P15.
(2) Treatment of Compounds of the Present Invention
Then, it was cultured in 37° C.
(3) Cytotoxicity Experiment
CO2 incubator for 4 hours.

Where [4] appears, read: MRC-5 normal cell line, 5 days, 10000 nM to 1.52 nM, N.D. = no cytotoxicity until 10 μM.

Molecules are shown by their SMILES. Like-named read-outs stand apart in the source and are kept apart here. Some results are limits rather than exact numbers.

The record followed here is US20250114460A1, “NOVEL PLK1 DEGRADATION INDUCING COMPOUND” (UPPTHERA, INC., priority 2021, published 2025).

The term IC50 denotes the point on the concentration scale where inhibition reaches its midpoint.

T1 sequence (P53350 whole entry): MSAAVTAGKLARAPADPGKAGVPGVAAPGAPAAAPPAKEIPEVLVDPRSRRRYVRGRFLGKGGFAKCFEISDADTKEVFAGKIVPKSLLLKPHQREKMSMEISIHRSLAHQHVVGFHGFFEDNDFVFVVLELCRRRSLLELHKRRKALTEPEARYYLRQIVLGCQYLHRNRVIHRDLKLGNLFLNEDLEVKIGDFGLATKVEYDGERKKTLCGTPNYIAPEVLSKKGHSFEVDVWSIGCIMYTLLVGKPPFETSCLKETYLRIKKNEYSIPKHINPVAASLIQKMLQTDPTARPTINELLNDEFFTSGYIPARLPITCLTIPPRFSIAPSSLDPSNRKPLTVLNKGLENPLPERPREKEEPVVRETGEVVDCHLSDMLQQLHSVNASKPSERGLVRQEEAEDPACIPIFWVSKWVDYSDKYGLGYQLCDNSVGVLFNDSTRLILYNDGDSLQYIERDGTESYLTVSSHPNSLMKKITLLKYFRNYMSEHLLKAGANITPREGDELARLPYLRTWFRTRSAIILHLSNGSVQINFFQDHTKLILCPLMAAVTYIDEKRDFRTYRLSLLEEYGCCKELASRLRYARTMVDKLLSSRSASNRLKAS

Turning to `COc1cc(C(=O)NC2CCN(C(=O)CCN3CCN(c4ccc(F)c5c4C(=O)N(C4CCC(=O)NC4=O)C5=O)CC3)CC2)ccc1Nc1ncc2c(n1)N(C1CCCC1)CC(F)(F)C(=O)N2C` (stereo not drawn) [Compound 142, 4-((9-cyclopentyl-7,7-difluoro-5-methyl-6-oxo-6,7,8,9-tetrahydro-5H-pyrimido[4,5-b][1,4]diazepin-2-yl)amino)-N-(1-(3-(4-(2-(2,6-dioxopiperidin-3-yl)-7-fluoro-1,3-dioxoisoindolin-4-yl)piperazin-1-yl)propanoyl)piperidin-4-yl)-3-methoxybenzamide], the IC50 in test [1] was less than 0.1 µM; in test [3] (setting [4]), more than 10 µM. The “Activity: ratio of the luminescense value of each Exemplary Compound treatment group to DMSO treatment group” value (from here on “Activity: ratio”) in test [2] was “++ (++<0.6)”.

`COc1cc(C(=O)NN2CCC(CN3CCN(c4cccc5c4C(=O)N(C4CCC(=O)NC4=O)C5=O)CC3)C(F)(F)C2)ccc1Nc1ncc2c(n1)N(C(C)C)CC(F)(F)C(=O)N2C` (stereo not drawn) [Compound 157, 4-((7,7-difluoro-9-isopropyl-5-methyl-6-oxo-6,7,8,9-tetrahydro-5H-pyrimido[4,5-b][1,4]diazepin-2-yl)amino)-N-(4-((4-(2-(2,6-dioxopiperidin-3-yl)-1,3-dioxoisoindolin-4-yl)piperazin-1-yl)methyl)-3,3-difluoropiperidin-1-yl)-3-methoxybenzamide]: the values for the IC50 in test [1] and in test [3] (setting [4]) were less than 0.1 µM and more than 10 µM, respectively. In test [2], the “Activity: ratio” value was “++ (++<0.6)”.

As for `COc1cc(C(=O)N[C@H]2CC[C@H](N(C)CC3CCN(c4cccc5c4C(=O)N(C4CCC(=O)NC4=O)C5=O)CC3)CC2)ccc1Nc1ncc2c(n1)N(C(C)C)CC(F)(F)C(=O)N2C` (stereo partly drawn) [Compound 152, 4-((7,7-difluoro-9-isopropyl-5-methyl-6-oxo-6,7,8,9-tetrahydro-5H-pyrimido[4,5-b][1,4]diazepin-2-yl)amino)-N-((1r,4r)-4-(((1-(2-(2,6-dioxopiperidin-3-yl)-1,3-dioxoisoindolin-4-yl)piperidin-4-yl)methyl)(methyl)amino)cyclohexyl)-3-methoxybenzamide], the IC50 in test [1] is less than 0.05 µM; in test [3] (setting [4]), 6.17 µM. Also, the “Activity: ratio” value in test [2] was “++ (++<0.6)”.

In the case of `COc1cc(C(=O)N2CCC(CCN3CCN(c4ccc5c(c4)C(=O)N(C4CCC(=O)NC4=O)C5=O)CC3)CC2)ccc1Nc1ncc2c(n1)N(C1CCCC1)CC(F)(F)C(=O)N2C` (stereo not drawn) [Compound 98, 5-(4-(2-(1-(4-((9-cyclopentyl-7,7-difluoro-5-methyl-6-oxo-6,7,8,9-tetrahydro-5H-pyrimido[4,5-b][1,4]diazepin-2-yl)amino)-3-methoxybenzoyl)piperidin-4-yl)ethyl)piperazin-1-yl)-2-(2,6-dioxopiperidin-3-yl)isoindoline-1,3-dione], the IC50 is less than 0.4 µM in test [1] and more than 10 µM in test [3] (setting [4]). The “Activity: ratio” value in test [2] is “++ (++<0.6)”.

On to `COc1cc(C(=O)NC2CCCN(CCN3CCN(c4cccc5c4C(=O)N(C4CCC(=O)NC4=O)C5=O)CC3)C2)ccc1Nc1ncc2c(n1)N(C1CCCC1)CC(F)(F)C(=O)N2C` (stereo not drawn) [Compound 143, 4-((9-cyclopentyl-7,7-difluoro-5-methyl-6-oxo-6,7,8,9-tetrahydro-5H-pyrimido[4,5-b][1,4]diazepin-2-yl)amino)-N-(1-(2-(4-(2-(2,6-dioxopiperidin-3-yl)-1,3-dioxoisoindolin-4-yl)piperazin-1-yl)ethyl)piperidin-3-yl)-3-methoxybenzamide], for which the values for the 50% inhibitory concentration (IC50) in test [1] and in test [3] were less than 0.1 µM and more than 10 µM, respectively. Also, the “Activity: ratio” value in test [2] was “++ (++<0.6)”.

As to `COc1cc(C(=O)N[C@H]2CCN(C(=O)COc3cccc4c3C(=O)N(C3CCC(=O)NC3=O)C4=O)C2)ccc1Nc1ncc2c(n1)N(C1CCCC1)CC(F)(F)C(=O)N2C` (stereo partly drawn) [Compound 40, 4-((9-cyclopentyl-7,7-difluoro-5-methyl-6-oxo-6,7,8,9-tetrahydro-5H-pyrimido[4,5-b][1,4]diazepin-2-yl)amino)-N-((3S)-1-(2-((2-(2,6-dioxopiperidin-3-yl)-1,3-dioxoisoindolin-4-yl)oxy)acetyl)pyrrolidin-3-yl)-3-methoxybenzamide], the IC50 is less than 0.2 µM in test [1] and more than 10 µM in test [3] (setting [4]). Besides, in test [2], the “Activity: ratio” value was “++ (++<0.6)”.

`COc1cc(C(=O)NCC2CCN(CCC3CCN(c4cccc5c4C(=O)N(C4CCC(=O)NC4=O)C5=O)C3)CC2)ccc1Nc1ncc2c(n1)N(C1CCCC1)CC(F)(F)C(=O)N2C` (stereo not drawn) [Compound 50, 4-((9-cyclopentyl-7,7-difluoro-5-methyl-6-oxo-6,7,8,9-tetrahydro-5H-pyrimido[4,5-b][1,4]diazepin-2-yl)amino)-N-((1-(2-(1-(2-(2,6-dioxopiperidin-3-yl)-1,3-dioxoisoindolin-4-yl)pyrrolidin-3-yl)ethyl)piperidin-4-yl)methyl)-3-methoxybenzamide]: the results for the IC50 in test [1] and in test [3] (setting [4]) were less than 0.03 µM and 11.3 µM, respectively. The “Activity: ratio” value in test [2] is reported as “++ (++<0.6)”.

On to `COc1cc(C(=O)NC2CN(CC3CCN(c4ccc5c(c4)C(=O)N(C4CCC(=O)NC4=O)C5=O)CC3)C2)ccc1Nc1ncc2c(n1)N(C1CCCC1)CC(F)(F)C(=O)N2C` (stereo not drawn) [Compound 139, 4-((9-cyclopentyl-7,7-difluoro-5-methyl-6-oxo-6,7,8,9-tetrahydro-5H-pyrimido[4,5-b][1,4]diazepin-2-yl)amino)-N-(1-((1-(2-(2,6-dioxopiperidin-3-yl)-1,3-dioxoisoindolin-5-yl)piperidin-4-yl)methyl)azetidin-3-yl)-3-methoxybenzamide], for which the values for the IC50 in test [1] and in test [3] (setting [4]) were less than 0.05 µM and more than 10 µM, respectively. Also, the “Activity: ratio” value in test [2] is given as “++ (++<0.6)”.

As for `COc1cc(C(=O)NC2CCN(C(=O)CCCNc3cccc4c3C(=O)N(C3CCC(=O)NC3=O)C4=O)CC2)ccc1Nc1ncc2c(n1)N(C1CCCC1)CC(F)(F)C(=O)N2C` (stereo not drawn) [Compound 25, 4-((9-cyclopentyl-7,7-difluoro-5-methyl-6-oxo-6,7,8,9-tetrahydro-5H-pyrimido[4,5-b][1,4]diazepin-2-yl)amino)-N-(1-(4-((2-(2,6-dioxopiperidin-3-yl)-1,3-dioxoisoindolin-4-yl)amino)butanoyl)piperidin-4-yl)-3-methoxybenzamide], the IC50 was less than 0.05 µM in test [1] and more than 10 µM in test [3] (setting [4]). The “Activity: ratio” value in test [2] is recorded as “++ (++<0.6)”.

For `COc1cc(C(=O)NC2CN(CC3CCN(c4cccc5c4C(=O)N(C4CCC(=O)NC4=O)C5=O)CC3)C2)ccc1Nc1ncc2c(n1)N(C1CCCC1)CC(F)(F)C(=O)N2C` (stereo not drawn) [Compound 138, 4-((9-cyclopentyl-7,7-difluoro-5-methyl-6-oxo-6,7,8,9-tetrahydro-5H-pyrimido[4,5-b][1,4]diazepin-2-yl)amino)-N-(1-((1-(2-(2,6-dioxopiperidin-3-yl)-1,3-dioxoisoindolin-4-yl)piperidin-4-yl)methyl)azetidin-3-yl)-3-methoxybenzamide], the figures for the half-inhibitory concentration (IC50) in test [1] and in test [3] (setting [4]) were less than 0.05 µM and more than 10 µM, respectively. Also, the “Activity: ratio” value in test [2] is “++ (++<0.6)”.

Take `COc1cc(C(=O)NC2CCN(C(=O)CCCNc3cccc4c3CN(C3CCC(=O)NC3=O)C4=O)CC2)ccc1Nc1ncc2c(n1)N(C1CCCC1)CC(F)(F)C(=O)N2C` (stereo not drawn) [Compound 26, 4-((9-cyclopentyl-7,7-difluoro-5-methyl-6-oxo-6,7,8,9-tetrahydro-5H-pyrimido[4,5-b][1,4]diazepin-2-yl)amino)-N-(1-(4-((2-(2,6-dioxopiperidin-3-yl)-1-oxoisoindolin-4-yl)amino)butanoyl)piperidin-4-yl)-3-methoxybenzamide]: the IC50 was less than 0.05 µM in test [1] and more than 10 µM in test [3] (setting [4]). In addition, the “Activity: ratio” value in test [2] was “++ (++<0.6)”.

As to `COc1cc(C(=O)NC2CCN(C(=O)CCN3CCN(c4cccc5c4C(=O)N(C4CCC(=O)NC4=O)C5=O)CC3)CC2)ccc1Nc1ncc2c(n1)N(C1CCCC1)CC1(CC1)C(=O)N2C` (stereo not drawn) [Compound 120, 4-((9′-cyclopentyl-5′-methyl-6′-oxo-5′,6′,8′,9′-tetrahydrospiro[cyclopropane-1,7′-pyrimido[4,5-b][1,4]diazepin]-2′-yl)amino)-N-(1-(3-(4-(2-(2,6-dioxopiperidin-3-yl)-1,3-dioxoisoindolin-4-yl)piperazin-1-yl)propanoyl)piperidin-4-yl)-3-methoxybenzamide], the IC50 was less than 0.05 µM in test [1] and more than 10 µM in test [3] (setting [4]). Moreover, the “Activity: ratio” value in test [2] is “+++ (+++: <0.3)”.
